Measurements taken from US20190284536A1, “EPITHELIAL TUMOR CELL CULTURES” (Beijing Percans Oncology Co., Ltd., priority 2016, published 2019).

System: human epithelial tumor cells
Conditions: DMEM/F12 based culture medium supplemented with BSA vs without; FIG. 10
Protocol: DF12: DMEM/F12 based culture medium. DF12+BSA: DMEM/12 based culture medium supplemented with BSA. Cell proliferation was measured by EdU incorporation. Error bars represent standard deviation (SD).

bovine serum albumin [BSA]
growth of human epithelial tumor cells (cell proliferation by EdU incorporation): supports the growth
